From patent US7118895B2, “Process for producing aglycon by using diglycosidase and flavor-improved food containing the aglycon and converting agent to be used in the process” (Amano Enzyme Inc., priority 2000, dated 2006)

Legend:
[1] = system: β-Glucosidase derived from A. niger; assay: Reactivity toward various isoflavone glycosides (HPLC); format: biochemical, Aspergillus niger; design: glucoside / aglycon: unit not given here; conditions: 55 °C, pH 4.0
How it was run: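 Enzymes at 0.75 AU/mL in pH 4.0 acetate buffer were reacted at 55° C with individual isoflavone glycosides (substrate stock 2 mM in methanol) in 20 mM acetate pH 4.0. Aglycone release followed at 0, 1, 3 and 6 h: ethanol-quenched, ODS HPLC with UV 260 nm, quantified against calibration curves.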

Crude diglycosidase = assay: Examination of substrate concentration in the conversion into isoflavone aglycons by diglycosidase using soybean materials; format: biochemical, Penicillium multicolor IAM7153;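 for Decomposition efficiency: ratio of each glycoside/aglycon within its isoflavone family: percent of the isoflavone family total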
How it was run: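 Soybean materials (roasted soy flour, soymilk, defatted soybean, concentrated soy protein) at 2–30% (w/v) in 20 mM acetate pH 4.0 were reacted with crude diglycosidase at 55° C with shaking; enzyme solution added was 1.88 AU/mL. Samples taken at 0, 1, 3 and 6 h were ethanol-extracted and analyzed by HPLC.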

aglycon ([1]; Reaction time 0 h): 0
glucoside ([1]; Reaction time 0 h): 100
aglycon ([1]; Reaction time 1 h): 4.5
glucoside ([1]; Reaction time 1 h): 95.5
aglycon ([1]; Reaction time 3 h): 9.3
glucoside ([1]; Reaction time 3 h): 90.7
aglycon ([1]; Reaction time 6 h): 16
glucoside ([1]; Reaction time 6 h): 84
Decomposition efficiency: ratio of each glycoside/aglycon within its isoflavone family (Crude diglycosidase; roasted soy flour, substrate concentration 2%, heat treatment of enzyme no, reaction time 0 h): not detected
Decomposition efficiency: ratio of each glycoside/aglycon within its isoflavone family (Crude diglycosidase; roasted soy flour, substrate concentration 2%, heat treatment of enzyme no, reaction time 1 h): not detected
Decomposition efficiency: ratio of each glycoside/aglycon within its isoflavone family (Crude diglycosidase; roasted soy flour, substrate concentration 2%, heat treatment of enzyme no, reaction time 3 h): not detected
Decomposition efficiency: ratio of each glycoside/aglycon within its isoflavone family (Crude diglycosidase; roasted soy flour, substrate concentration 2%, heat treatment of enzyme no, reaction time 6 h): not detected
Decomposition efficiency: ratio of each glycoside/aglycon within its isoflavone family (Crude diglycosidase; roasted soy flour, substrate concentration 2%, heat treatment of enzyme yes, reaction time 6 h): not detected
Decomposition efficiency: ratio of each glycoside/aglycon within its isoflavone family (Crude diglycosidase; roasted soy flour, substrate concentration 5%, heat treatment of enzyme no, reaction time 0 h): not detected
Decomposition efficiency: ratio of each glycoside/aglycon within its isoflavone family (Crude diglycosidase; roasted soy flour, substrate concentration 5%, heat treatment of enzyme no, reaction time 1 h): not detected
Decomposition efficiency: ratio of each glycoside/aglycon within its isoflavone family (Crude diglycosidase; roasted soy flour, substrate concentration 5%, heat treatment of enzyme no, reaction time 3 h): not detected
Decomposition efficiency: ratio of each glycoside/aglycon within its isoflavone family (Crude diglycosidase; roasted soy flour, substrate concentration 5%, heat treatment of enzyme no, reaction time 6 h): not detected
Decomposition efficiency: ratio of each glycoside/aglycon within its isoflavone family (Crude diglycosidase; roasted soy flour, substrate concentration 5%, heat treatment of enzyme yes, reaction time 6 h): not detected
Decomposition efficiency: ratio of each glycoside/aglycon within its isoflavone family (Crude diglycosidase; roasted soy flour, substrate concentration 10%, heat treatment of enzyme no, reaction time 0 h): not detected
Decomposition efficiency: ratio of each glycoside/aglycon within its isoflavone family (Crude diglycosidase; roasted soy flour, substrate concentration 10%, heat treatment of enzyme no, reaction time 1 h): not detected
Decomposition efficiency: ratio of each glycoside/aglycon within its isoflavone family (Crude diglycosidase; roasted soy flour, substrate concentration 10%, heat treatment of enzyme no, reaction time 3 h): not detected
Decomposition efficiency: ratio of each glycoside/aglycon within its isoflavone family (Crude diglycosidase; roasted soy flour, substrate concentration 10%, heat treatment of enzyme no, reaction time 6 h): not detected
Decomposition efficiency: ratio of each glycoside/aglycon within its isoflavone family (Crude diglycosidase; roasted soy flour, substrate concentration 10%, heat treatment of enzyme yes, reaction time 6 h): not detected
Decomposition efficiency: ratio of each glycoside/aglycon within its isoflavone family (Crude diglycosidase; roasted soy flour, substrate concentration 20%, heat treatment of enzyme no, reaction time 0 h): not detected
Decomposition efficiency: ratio of each glycoside/aglycon within its isoflavone family (Crude diglycosidase; roasted soy flour, substrate concentration 20%, heat treatment of enzyme no, reaction time 1 h): not detected
Decomposition efficiency: ratio of each glycoside/aglycon within its isoflavone family (Crude diglycosidase; roasted soy flour, substrate concentration 20%, heat treatment of enzyme no, reaction time 3 h): not detected
Decomposition efficiency: ratio of each glycoside/aglycon within its isoflavone family (Crude diglycosidase; roasted soy flour, substrate concentration 20%, heat treatment of enzyme no, reaction time 6 h): not detected
Decomposition efficiency: ratio of each glycoside/aglycon within its isoflavone family (Crude diglycosidase; roasted soy flour, substrate concentration 20%, heat treatment of enzyme yes, reaction time 6 h): not detected
Decomposition efficiency: ratio of each glycoside/aglycon within its isoflavone family (Crude diglycosidase; roasted soy flour, substrate concentration 30%, heat treatment of enzyme no, reaction time 0 h): not detected
Decomposition efficiency: ratio of each glycoside/aglycon within its isoflavone family (Crude diglycosidase; roasted soy flour, substrate concentration 30%, heat treatment of enzyme no, reaction time 1 h): not detected
Decomposition efficiency: ratio of each glycoside/aglycon within its isoflavone family (Crude diglycosidase; roasted soy flour, substrate concentration 30%, heat treatment of enzyme no, reaction time 3 h): not detected
Decomposition efficiency: ratio of each glycoside/aglycon within its isoflavone family (Crude diglycosidase; roasted soy flour, substrate concentration 30%, heat treatment of enzyme no, reaction time 6 h): not detected
Decomposition efficiency: ratio of each glycoside/aglycon within its isoflavone family (Crude diglycosidase; roasted soy flour, substrate concentration 30%, heat treatment of enzyme yes, reaction time 6 h): not detected
Decomposition efficiency: ratio of each glycoside/aglycon within its isoflavone family (Crude diglycosidase; soymilk, substrate concentration 2%, heat treatment of enzyme no, reaction time 0 h): 32.2%
Decomposition efficiency: ratio of each glycoside/aglycon within its isoflavone family (Crude diglycosidase; soymilk, substrate concentration 2%, heat treatment of enzyme no, reaction time 1 h): 27.5%
Decomposition efficiency: ratio of each glycoside/aglycon within its isoflavone family (Crude diglycosidase; soymilk, substrate concentration 2%, heat treatment of enzyme no, reaction time 3 h): 9.9%
Decomposition efficiency: ratio of each glycoside/aglycon within its isoflavone family (Crude diglycosidase; soymilk, substrate concentration 2%, heat treatment of enzyme no, reaction time 6 h): 2.9%
Decomposition efficiency: ratio of each glycoside/aglycon within its isoflavone family (Crude diglycosidase; soymilk, substrate concentration 2%, heat treatment of enzyme yes, reaction time 6 h): 47.0%
Decomposition efficiency: ratio of each glycoside/aglycon within its isoflavone family (Crude diglycosidase; soymilk, substrate concentration 5%, heat treatment of enzyme no, reaction time 0 h): 53.6%
Decomposition efficiency: ratio of each glycoside/aglycon within its isoflavone family (Crude diglycosidase; soymilk, substrate concentration 5%, heat treatment of enzyme no, reaction time 1 h): 34.2%
Decomposition efficiency: ratio of each glycoside/aglycon within its isoflavone family (Crude diglycosidase; soymilk, substrate concentration 5%, heat treatment of enzyme no, reaction time 3 h): 15.9%
Decomposition efficiency: ratio of each glycoside/aglycon within its isoflavone family (Crude diglycosidase; soymilk, substrate concentration 5%, heat treatment of enzyme no, reaction time 6 h): 6.1%
Decomposition efficiency: ratio of each glycoside/aglycon within its isoflavone family (Crude diglycosidase; soymilk, substrate concentration 5%, heat treatment of enzyme yes, reaction time 6 h): 47.6%
Decomposition efficiency: ratio of each glycoside/aglycon within its isoflavone family (Crude diglycosidase; soymilk, substrate concentration 10%, heat treatment of enzyme no, reaction time 0 h): 53.4%
Decomposition efficiency: ratio of each glycoside/aglycon within its isoflavone family (Crude diglycosidase; soymilk, substrate concentration 10%, heat treatment of enzyme no, reaction time 1 h): 37.4%
Decomposition efficiency: ratio of each glycoside/aglycon within its isoflavone family (Crude diglycosidase; soymilk, substrate concentration 10%, heat treatment of enzyme no, reaction time 3 h): 20.5%
Decomposition efficiency: ratio of each glycoside/aglycon within its isoflavone family (Crude diglycosidase; soymilk, substrate concentration 10%, heat treatment of enzyme no, reaction time 6 h): 10.7%
Decomposition efficiency: ratio of each glycoside/aglycon within its isoflavone family (Crude diglycosidase; soymilk, substrate concentration 10%, heat treatment of enzyme yes, reaction time 6 h): 47.8%
Decomposition efficiency: ratio of each glycoside/aglycon within its isoflavone family (Crude diglycosidase; soymilk, substrate concentration 20%, heat treatment of enzyme no, reaction time 0 h): 53.6%
Decomposition efficiency: ratio of each glycoside/aglycon within its isoflavone family (Crude diglycosidase; soymilk, substrate concentration 20%, heat treatment of enzyme no, reaction time 1 h): 41.2%
Decomposition efficiency: ratio of each glycoside/aglycon within its isoflavone family (Crude diglycosidase; soymilk, substrate concentration 20%, heat treatment of enzyme no, reaction time 3 h): 21.5%
Decomposition efficiency: ratio of each glycoside/aglycon within its isoflavone family (Crude diglycosidase; soymilk, substrate concentration 20%, heat treatment of enzyme no, reaction time 6 h): 16.4%
Decomposition efficiency: ratio of each glycoside/aglycon within its isoflavone family (Crude diglycosidase; soymilk, substrate concentration 20%, heat treatment of enzyme yes, reaction time 6 h): 48.1%
Decomposition efficiency: ratio of each glycoside/aglycon within its isoflavone family (Crude diglycosidase; soymilk, substrate concentration 30%, heat treatment of enzyme no, reaction time 0 h): 53.5%
Decomposition efficiency: ratio of each glycoside/aglycon within its isoflavone family (Crude diglycosidase; soymilk, substrate concentration 30%, heat treatment of enzyme no, reaction time 1 h): 43.8%
Decomposition efficiency: ratio of each glycoside/aglycon within its isoflavone family (Crude diglycosidase; soymilk, substrate concentration 30%, heat treatment of enzyme no, reaction time 3 h): 29.7%
Decomposition efficiency: ratio of each glycoside/aglycon within its isoflavone family (Crude diglycosidase; soymilk, substrate concentration 30%, heat treatment of enzyme no, reaction time 6 h): 21.9%
Decomposition efficiency: ratio of each glycoside/aglycon within its isoflavone family (Crude diglycosidase; soymilk, substrate concentration 30%, heat treatment of enzyme yes, reaction time 6 h): 46.9%
Decomposition efficiency of daidzin family in defatted soybean (Crude diglycosidase; substrate concentration 2%, heat treatment of enzyme no, reaction time 0 h): 42.2
Decomposition efficiency of daidzin family in defatted soybean (Crude diglycosidase; substrate concentration 2%, heat treatment of enzyme no, reaction time 1 h): 35.2
Decomposition efficiency of daidzin family in defatted soybean (Crude diglycosidase; substrate concentration 2%, heat treatment of enzyme no, reaction time 3 h): 21.2
Decomposition efficiency of daidzin family in defatted soybean (Crude diglycosidase; substrate concentration 2%, heat treatment of enzyme no, reaction time 6 h): 16.5
Decomposition efficiency of daidzin family in defatted soybean (Crude diglycosidase; substrate concentration 2%, heat treatment of enzyme yes, reaction time 6 h): 38.1
Decomposition efficiency of daidzin family in defatted soybean (Crude diglycosidase; substrate concentration 5%, heat treatment of enzyme no, reaction time 0 h): 41.1
Decomposition efficiency of daidzin family in defatted soybean (Crude diglycosidase; substrate concentration 5%, heat treatment of enzyme no, reaction time 1 h): 37.7
Decomposition efficiency of daidzin family in defatted soybean (Crude diglycosidase; substrate concentration 5%, heat treatment of enzyme no, reaction time 3 h): 30.6
Decomposition efficiency of daidzin family in defatted soybean (Crude diglycosidase; substrate concentration 5%, heat treatment of enzyme no, reaction time 6 h): 21.0
Decomposition efficiency of daidzin family in defatted soybean (Crude diglycosidase; substrate concentration 5%, heat treatment of enzyme yes, reaction time 6 h): 38.1
Decomposition efficiency of daidzin family in defatted soybean (Crude diglycosidase; substrate concentration 10%, heat treatment of enzyme no, reaction time 0 h): 39.7
Decomposition efficiency of daidzin family in defatted soybean (Crude diglycosidase; substrate concentration 10%, heat treatment of enzyme no, reaction time 1 h): 39.5
Decomposition efficiency of daidzin family in defatted soybean (Crude diglycosidase; substrate concentration 10%, heat treatment of enzyme no, reaction time 3 h): 34.2
Decomposition efficiency of daidzin family in defatted soybean (Crude diglycosidase; substrate concentration 10%, heat treatment of enzyme no, reaction time 6 h): 29.0
Decomposition efficiency of daidzin family in defatted soybean (Crude diglycosidase; substrate concentration 10%, heat treatment of enzyme yes, reaction time 6 h): 37.0
Structure (SMILES): O=C(O)CC(=O)OC[C@H]1O[C@@H](Oc2ccc3c(=O)c(-c4ccc(O)cc4)coc3c2)[C@H](O)[C@@H](O)[C@@H]1O [malonyldaidzin, 6″-O-malonyldaidzin]
